Measurements published in patent publication US20130324555A1, “Method of use of pharmaceutical formulations for the treatment of apicomplexan diseases in animals” (priority 2012, published 2013).
Entries after “also recorded” stand apart in the source; their conditions may differ. Read-outs that look alike come from different tables or passages of the source.

Tests used:
[1] = tested on: THdhxgTRP tachyzoites transfected with pLK47; experiment: Insertional mutagenesis experiments (selection of resistant mutants); type: cell-based, T. gondii; conditions: prolonged incubation (six weeks)
Description: Insertional mutagenesis experiments were performed.
THdhxgTRP tachyzoites were transfected with pLK47 vector plasmid. Parasites were extracted from HFF cells and resuspended in 1 mL cytomix electroporation buffer solution (120 mM KCl, 150 uM CaCl2, 5 mM K2HPO4, 5 mM KH2PO4, 25 mM HEPES, 2 mM EDTA and 5 mM MgCl2 in sterile H2O). Equivalent amounts of plasmid DNA and cytomix solution containing 10×10^7 parasites were combined for a total volume of 400 uL and electroporated using BioRad electroporator at 1.5 k, […] and 100Ω. […] Successfully transfected parasites were selected by month-long treatment with mycophenolic acid (25 ug/mL) and xanthine (50 ug/mL). After one month, the mixed mutant population were exposed to 3i, 3j, 7a or 14b to select for those mutants whose gene disruption conferred resistance to the drug.

[2] = tested on: P. falciparum D6 (CDC/Sierra Leone); experiment: Malaria SYBR Green 1-Based Fluorescence (MSF) Assay, strain D6; type: cell-based; conditions: for IC50: Plasmodium falciparum
Description: (§1) Compound activity against P. falciparum, the causative agent of malaria, was assessed using the Malaria SYBR Green 1-Based Fluorescence (MSF) Assay. This microtiter plate drug sensitivity assay uses the presence of malarial DNA as a measure of parasitic proliferation. The assay is a microtiter plate drug sensitivity assay that uses the presence of malarial DNA as a measure of parasitic proliferation in the presence of antimalarial drugs or experimental compounds based on modifications of previously described methods (Plouffe et al., Proc Natl Acad Sci USA. 2008, 105, 9059-9064), (Johnson et al., Antimicrob. Agents Chemother. 2005, 49, 3463-3467).
(§2) Selected compounds were examined for activity against two strains of P. falciparum: D6 (CDC/Sierra Leone), a drug-sensitive and readily killed by chloroquine, and TM90-C235, a multi-drug resistant strain resistant to chloroquine.
(§3) D6 (CDC/Sierra Leone) and TM90-C235 (WRAIR, Thailand) laboratory strains of P. falciparum were used for each drug sensitivity assessment. The parasite strains were maintained continuously in long-term cultures as previously described in Johnson et al, and P. falciparum strains in late-ring or early-trophozoite stages were cultured in predosed 384-well microtiter drug assay plates in 38 μl culture volume per well at a starting parasitemia of 0.3% and a hematocrit of 2%. Pre-dosed, sterile, 384 well black optical bottom microtiter drug plates for use in the MSF assay were produced using a Tecan EVO Freedom Liquid Handling System (Tecan US, Durham, N.C.). Dose response plates were produced at a final concentration ranging from 0.5-10000 ng/ml in quadruplicate (twelve two-fold serial dilutions of each test compound or chloroquine control in DMSO. Each run was validated by a batch control plate with chloroquine (Sigma-Aldrich Co., Catalog #C6628) at a final concentration of 2000 ng/ml. The cultures were incubated for 72 hours at 37° C., 5% CO2, 5% O2 and 90% N2. Lysis buffer (38 μl per well), consisting of 20 mM Tris HCl, 5 mM EDTA, 1.6% Triton X, 0.016% saponin, and SYBR green I dye at a 20× concentration (Invitrogen, Catalog #S-7567) was then added to the assay plates utilizing the Tecan EVO Freedom system for a final SYBR Green concentration of 10×. Plates were incubated in the dark at room temperature in the dark for 24 hours.
(§4) Compound activity was assessed by examining for the relative fluorescence units (RFU) per well using the Tecan Genios Plus (Tecan US, Inc., Durham, N.C.). GraphPad Prism (GraphPad Software Inc., San Diego, Calif.) using the nonlinear regression (sigmoidal dose-response/variable slope) equation was used to determine IC50 values.

P. falciparum TM90-C235 = experiment: Malaria SYBR Green 1-Based Fluorescence (MSF) Assay, strain TM90-C235; type: cell-based; conditions: for efficacy against TM90-C235 compared with D6 (cross-resistance): D6 versus TM90-C235; for IC50: Plasmodium falciparum; for C235 IC50: multi-drug resistant strain TM90-C235
Description: as §1, §2, §3, §4

RH-YFP tachyzoites = experiment: Determination of static or cidal effects; type: cell-based, T. gondii; conditions: compound at 1 μM; for static or cidal effect: growth assessed at days 11, 17, 25
Description: In order to determine whether leading compounds in this study inhibited parasite proliferation by either a cidal or static mechanism, four were selected (3i, 3j, 7a, and 14a) and applied at four to eight times MICs50 to parasites. In this assay, RH-YFP tachyzoites were treated with each compound at 1 μM under various dosing conditions:
Condition A: Parasites were treated for four days, then compound was removed
Condition B: Parasites were treated for ten days, then compound was removed
Condition C: Compound was refreshed at four days then removed at ten days
Condition D: Compound was maintained for the duration of the experiment
The four and ten day time points were taken to reveal the impact of extended exposure of the parasites to the test substance. Compounds were refreshed at four days to examine whether compound degradation could contribute to an observed static effect. Parasite growth was assessed at days 11, 17, and 25. The growth data, as a function of ^3H-uracil uptake, is expressed in FIG. 7. 4 days, Condition A; 10 days, renewed at 4, Condition B; 10 days, Condition C; All time, Condition D. Ordinate: Counts per minute.
RH-YFP tachyzoites were treated with each compound at 1 μM under one of four conditions: a) parasites were treated for four days, then compound was removed; b) parasites were treated for ten days, then compound was removed; c) compound was refreshed at four days and removed at ten; or d) compound was maintained for the duration of the experiment. The four and ten day time points were taken to reveal the impact of extended exposure of the parasites to the test substance. Compounds were refreshed at four days to examine whether compound degradation could contribute to an observed static effect. Parasite growth was assessed at 11, 17, and 25 days.

[3] = D6, chloroquine-sensitive strain D6, read-out: D6 IC50
[4] = D6, chloroquine-sensitive strain D6, read-out: D6 IC50 (molar)
[5] = chloroquine-sensitive strain D6
[6] = TM90, multi-drug resistant strain TM90-C235, read-out: C235 IC50

Row | Structure (SMILES) | parasite growth of mixed mutant population in the presence of compound ([1]; hydrochloride) | IC50 ([2]; D6, read-out: D6 IC50) [µg/mL] | efficacy against TM90-C235 compared with D6 (cross-resistance) (P. falciparum TM90-C235) | IC50 (P. falciparum TM90-C235; TM90, read-out: C235 IC50) [µg/mL] | duration of treatment after which a cidal effect was shown (RH-YFP tachyzoites) | static or cidal effect (RH-YFP tachyzoites) | IC50 [2, 3] [µg/mL] | IC50 [2, 4] [nM] | D6 IC50 [2, 5] [µg/mL] | IC50 (P. falciparum TM90-C235; TM90, chloroquine resistant strain TM90-C235, read-out: TM90-C235 IC50) [nM] | IC50 (P. falciparum TM90-C235; [6]) [µg/mL] | C235 IC50 (P. falciparum TM90-C235) [µg/mL] | parasite growth of mixed mutant population in the presence of compound [1] | IC50 ([2]; chloroquine-sensitive strain D6, read-out: D6 IC50) [µg/mL]
1 | CN(CC(=O)NN)C(=O)Oc1ccc(Cl)cc1C(=O)Nc1ccc(C(F)(F)F)cc1C(F)(F)F.Cl [Compound 14b, 2-((2,4-bis(trifluoromethyl)phenyl)carbamoyl)-4-chlorophenyl (2-hydrazinyl-2-oxoethyl)(methyl)carbamate hydrochloride] | No parasite growth was observed; also recorded: No parasite growth was noted |  |  |  |  |  |  |  |  |  |  |  |  | 
2 | CN(CC(=O)NN)C(=O)Oc1ccc(Cl)cc1C(=O)Nc1ccc([N+](=O)[O-])cc1Cl.Cl [Compound 14a, 4-chloro-2-((2-chloro-4-nitrophenyl)carbamoyl)phenyl (2-hydrazinyl-2-oxoethyl)(methyl)carbamate hydrochloride] |  | 1.33 | equally effective | 1.32 | ten days | cidal |  |  |  |  |  |  |  | 
3 | O=C(Oc1ccc(Cl)cc1C(=O)Nc1ccc([N+](=O)[O-])cc1Cl)c1ccccc1 [Compound 7a, 4-chloro-2-((2-chloro-4-nitrophenyl)carbamoyl)phenyl benzoate] |  |  | equally effective |  | four days | parasitocidal; also recorded: cidal | 0.295 | 700 | 0.2946 | 600 | 0.267 | 0.2666 | No parasite growth was observed; also recorded: No parasite growth was noted | 
4 | O=C(Nc1cc(C(F)(F)F)cc(C(F)(F)F)c1)c1cc(Cl)ccc1O [Compound 3j] |  |  | equally effective | 0.541 | four days | parasitocidal; also recorded: cidal |  |  |  |  |  |  | No parasite growth was observed; also recorded: No parasite growth was noted | 0.593
5 | CC(C)(C)c1cccc(NC(=O)c2cc(Cl)ccc2O)c1 [Compound 3i, N-(3-tert-butylphenyl)-5-chloro-2-hydroxybenzamide] |  |  | two-fold higher IC50 |  |  | parasitostatic; also recorded: static effect | 0.957 | 3000 | 0.9569 |  | > 2 | >2 | No parasite growth was observed; also recorded: No parasite growth was noted | 
